25 compounds from the SangsterLogP compilation can be followed below.

A short description of the data set: method code SF-AS, from DOI: 10.1002/chin.197535153.

For orientation: logP means a log measure of how a compound divides between an organic and an aqueous phase. A low value points to lower lipophilicity. `Cc1cccc(OC(=O)c2ccc(N)cc2O)c1` showed a logP of 3.64.

As to `CC(C)c1ccc(OC(=O)c2ccc(N)cc2O)cc1`, the logP is 4.12. The compound `COc1ccc(OC(=O)c2ccc(N)cc2O)cc1` came in with a logP of 3.07. With `Cc1cccc(C)c1OC(=O)c1ccc(N)cc1O`, the logP was 3.88. For the compound `Nc1cccc(OC(=O)c2ccc(N)cc2O)c1`, the logP was determined as 2.08. In turn, `Nc1ccc(OC(=O)c2ccc(N)cc2O)cc1` displayed a logP of 2.04.

With `Nc1ccc(C(=O)Oc2cccc(C(F)(F)F)c2)c(O)c1`, the logP was found to be 3.61. The compound `Nc1ccc(C(=O)Oc2cccc(F)c2)c(O)c1` gave a logP of 3.42. This logP and that of the compound before are within 0.2 log units of each other. `Nc1ccc(C(=O)Oc2ccc(Cl)cc2Cl)c(O)c1` gave a logP of 4.27. To `COc1ccccc1OC(=O)c1ccc(N)cc1O` belongs 2.88. `Nc1ccc(C(=O)Oc2cccc(Cl)c2)c(O)c1` registered a logP of 3.9. Compound `Nc1ccc(C(=O)Oc2ccccc2)c(O)c1` yielded a logP of 3.15.

As for `CC(C)c1ccccc1OC(=O)c1ccc(N)cc1O`, the logP was determined as 4.28. Consider `Nc1ccc(C(=O)Oc2ccc(F)cc2)c(O)c1`, for which the logP was determined as 3.27. `Cc1ccc(OC(=O)c2ccc(N)cc2O)cc1`: the logP was 3.38. Compound `Cc1ccccc1OC(=O)c1ccc(N)cc1O` registered a logP of 3.14. With `Nc1ccc(C(=O)Oc2ccccc2Br)c(O)c1`, the logP came out at 3.74.

The compound `CC(C)(C)c1ccccc1OC(=O)c1ccc(N)cc1O` came in with a logP of 4.21. To `Nc1ccc(C(=O)Oc2cccc(Br)c2)c(O)c1` belongs 3.84; to `Nc1ccc(C(=O)Oc2ccccc2Cl)c(O)c1`, 3.72; to `Nc1ccc(C(=O)O)c(O)c1`, 0.87. Turning to `Nc1ccc(C(=O)Oc2ccc(Br)cc2)c(O)c1`, the logP was 3.46.

Regarding `Nc1ccc(C(=O)Oc2ccc(Cl)cc2)c(O)c1`, the logP came to 3.6.

In turn, `COc1cccc(OC(=O)c2ccc(N)cc2O)c1` gave a logP of 3.25. `Nc1ccc(C(=O)Oc2ccccc2F)c(O)c1`: the logP was 3.29.
